Laboratory results taken from patent US20200400650A1, “METHODS FOR DECONTAMINATING CIRCUITS FOR PRODUCING GLUCOSE POLYMERS AND HYDROLYSATES OF GLUCOSE POLYMERS” (Roquette Freres, priority 2012, published 2020).
“Also recorded” adds a separate entry of the source. One block for each molecule: values may come before it.

Legend:
[1] = background statement; cited from earlier work
[2] = biological target: T1, hTLR2 receptor (Homo sapiens, UniProt O60603); assay: HEK-Blue hTLR2 cell response test (SEAP reporter activity); type: cell-based
T1 construct: host or cells: HEK-Blue hTLR2 (HEK293-derived, SEAP reporter)
T1 sequence (O60603 19-784 limits assumed): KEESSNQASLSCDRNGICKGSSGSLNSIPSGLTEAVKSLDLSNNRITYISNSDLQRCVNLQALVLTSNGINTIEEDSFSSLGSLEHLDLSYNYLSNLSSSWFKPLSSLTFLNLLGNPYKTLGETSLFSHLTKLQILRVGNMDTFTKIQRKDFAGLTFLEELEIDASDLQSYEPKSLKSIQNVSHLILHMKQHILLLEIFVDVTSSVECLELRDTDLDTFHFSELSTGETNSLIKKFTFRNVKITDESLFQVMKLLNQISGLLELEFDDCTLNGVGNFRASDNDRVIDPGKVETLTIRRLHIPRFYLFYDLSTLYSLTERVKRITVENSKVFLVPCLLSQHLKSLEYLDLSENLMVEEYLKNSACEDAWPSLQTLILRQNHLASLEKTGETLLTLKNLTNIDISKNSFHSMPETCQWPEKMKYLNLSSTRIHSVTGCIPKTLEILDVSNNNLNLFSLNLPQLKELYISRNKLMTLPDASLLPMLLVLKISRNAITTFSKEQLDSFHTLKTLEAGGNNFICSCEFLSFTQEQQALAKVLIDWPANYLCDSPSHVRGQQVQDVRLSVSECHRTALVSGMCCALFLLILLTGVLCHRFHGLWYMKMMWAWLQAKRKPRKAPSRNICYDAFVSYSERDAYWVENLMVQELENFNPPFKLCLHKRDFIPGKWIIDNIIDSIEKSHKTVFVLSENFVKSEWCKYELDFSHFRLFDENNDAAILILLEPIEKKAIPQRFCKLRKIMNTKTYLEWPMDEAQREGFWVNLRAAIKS
Excerpt: (§1) The cell lines, in particular HEK-Blue™ (InvivoGen), are lines modified by stable transfection with a vector encoding an innate immunity receptor, in particular human (h) receptors. They are also cotransfected with the reporter gene, in particular a reporter gene producing SEAP, the synthesis of which is under the direct control of the signaling pathway associated with the receptor overexpressed. Preferably, this reporter gene encodes a colored or fluorescent protein or a protein of which the activity can be measured with or without substrate. […] The use of these lines makes it possible to target certain families of molecules of microbial origin according to the receptor expressed. Preferably, cell lines expressing either hTLR2 or hTLR4 or hNOD2 are used. In addition, a control line which expresses no innate immunity receptor is also used.
(§2) For the tests according to the present invention, four lines are preferably used: • HEK-Blue™ hTLR2 line: this line expressing the hTLR2 receptor responds specifically to TLR2 agonists (PGNs and lipopeptides especially). […]
(§3) The dose-response curves are produced with standard agonist molecules: LPS, PGN, LTA, zymosan and MDP. The Raw-Blue™ and HEK-Blue™ TLR2, TLR4, NOD2 and Null lines are incubated with increasing concentrations of agonists, and the cell response is measured by quantifying the SEAP activity (FIGS. 1-5). […]

[3] = test system: Raw-Blue™ line; assay: Raw-Blue cell inflammatory response test (SEAP reporter activity); type: cell-based, mouse
Excerpt: The Raw-Blue™ line is a line of mouse macrophages transfected with a reporter gene producing a secreted form of alkaline phosphatase (SEAP: secreted embryonic alkaline phosphatase), the transcription of which is under the direct control of the inflammatory signaling pathways. The advantage of this line is that it naturally expresses virtually all the innate immunity receptors, including the TLR2, TLR4 and NOD2 receptors. Thus, these cells will respond to the majority of inflammatory contaminants, and the response will be monitored by measuring the enzymatic activity of the SEAP produced. Preferably, this line is used in the test at a cell density of approximately 0.5×10^6 cells/well. The bringing of the preparation of glucose polymers or of hydrolysates thereof into contact with the cells lasts approximately 16 to 24 h.
The dose-response curves are produced with standard agonist molecules: LPS, PGN, LTA, zymosan and MDP. The Raw-Blue™ and HEK-Blue™ TLR2, TLR4, NOD2 and Null lines are incubated with increasing concentrations of agonists, and the cell response is measured by quantifying the SEAP activity (FIGS. 1-5).
For the cell tests, the samples are diluted to 1/10 in the cell culture medium (final concentration: 3.2% (w/v)). […]

[4] = biological target: T2, hTLR4 receptor (Homo sapiens, UniProt O00206+Q9Y6Y9); assay: HEK-Blue hTLR4 cell response test (SEAP reporter activity); type: cell-based
T2 construct: host or cells: HEK-Blue hTLR4 (HEK293-derived, SEAP reporter)
T2 sequence (O00206 24-839): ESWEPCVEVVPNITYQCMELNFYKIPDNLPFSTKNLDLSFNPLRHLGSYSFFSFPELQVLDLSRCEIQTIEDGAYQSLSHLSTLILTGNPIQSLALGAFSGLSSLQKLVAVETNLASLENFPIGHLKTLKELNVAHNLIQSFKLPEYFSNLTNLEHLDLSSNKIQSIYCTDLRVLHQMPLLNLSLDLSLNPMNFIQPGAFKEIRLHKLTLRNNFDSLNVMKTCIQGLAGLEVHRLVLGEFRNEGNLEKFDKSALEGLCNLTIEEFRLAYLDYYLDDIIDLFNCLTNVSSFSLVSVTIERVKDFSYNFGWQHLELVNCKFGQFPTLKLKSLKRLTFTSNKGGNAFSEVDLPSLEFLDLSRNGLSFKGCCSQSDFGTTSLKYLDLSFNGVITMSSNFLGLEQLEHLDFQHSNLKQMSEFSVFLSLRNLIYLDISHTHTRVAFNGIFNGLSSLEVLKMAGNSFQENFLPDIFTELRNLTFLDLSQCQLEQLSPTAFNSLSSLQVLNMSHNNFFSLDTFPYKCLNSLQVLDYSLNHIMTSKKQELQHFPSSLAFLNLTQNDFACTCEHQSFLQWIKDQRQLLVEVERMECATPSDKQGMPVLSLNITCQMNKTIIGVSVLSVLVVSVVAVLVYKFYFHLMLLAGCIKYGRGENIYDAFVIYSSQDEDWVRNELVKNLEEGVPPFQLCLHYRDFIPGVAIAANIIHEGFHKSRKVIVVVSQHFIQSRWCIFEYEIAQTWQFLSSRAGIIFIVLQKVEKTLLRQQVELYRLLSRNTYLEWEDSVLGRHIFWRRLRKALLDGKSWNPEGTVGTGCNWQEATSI
T2 sequence (Q9Y6Y9 17-160 limits assumed): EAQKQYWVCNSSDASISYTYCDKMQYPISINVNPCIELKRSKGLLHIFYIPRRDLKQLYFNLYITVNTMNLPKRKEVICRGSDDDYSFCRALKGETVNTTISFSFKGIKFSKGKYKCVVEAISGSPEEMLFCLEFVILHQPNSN
Excerpt: as §1, §2, §3

[5] = biological target: T3, hNOD2 receptor (Homo sapiens, UniProt Q9HC29); assay: HEK-Blue hNOD2 cell response test (SEAP reporter activity); type: cell-based; conditions: increasing concentrations of agonist
T3 construct: host or cells: HEK-Blue hNOD2 (HEK293-derived, SEAP reporter)
T3 sequence (Q9HC29 whole entry): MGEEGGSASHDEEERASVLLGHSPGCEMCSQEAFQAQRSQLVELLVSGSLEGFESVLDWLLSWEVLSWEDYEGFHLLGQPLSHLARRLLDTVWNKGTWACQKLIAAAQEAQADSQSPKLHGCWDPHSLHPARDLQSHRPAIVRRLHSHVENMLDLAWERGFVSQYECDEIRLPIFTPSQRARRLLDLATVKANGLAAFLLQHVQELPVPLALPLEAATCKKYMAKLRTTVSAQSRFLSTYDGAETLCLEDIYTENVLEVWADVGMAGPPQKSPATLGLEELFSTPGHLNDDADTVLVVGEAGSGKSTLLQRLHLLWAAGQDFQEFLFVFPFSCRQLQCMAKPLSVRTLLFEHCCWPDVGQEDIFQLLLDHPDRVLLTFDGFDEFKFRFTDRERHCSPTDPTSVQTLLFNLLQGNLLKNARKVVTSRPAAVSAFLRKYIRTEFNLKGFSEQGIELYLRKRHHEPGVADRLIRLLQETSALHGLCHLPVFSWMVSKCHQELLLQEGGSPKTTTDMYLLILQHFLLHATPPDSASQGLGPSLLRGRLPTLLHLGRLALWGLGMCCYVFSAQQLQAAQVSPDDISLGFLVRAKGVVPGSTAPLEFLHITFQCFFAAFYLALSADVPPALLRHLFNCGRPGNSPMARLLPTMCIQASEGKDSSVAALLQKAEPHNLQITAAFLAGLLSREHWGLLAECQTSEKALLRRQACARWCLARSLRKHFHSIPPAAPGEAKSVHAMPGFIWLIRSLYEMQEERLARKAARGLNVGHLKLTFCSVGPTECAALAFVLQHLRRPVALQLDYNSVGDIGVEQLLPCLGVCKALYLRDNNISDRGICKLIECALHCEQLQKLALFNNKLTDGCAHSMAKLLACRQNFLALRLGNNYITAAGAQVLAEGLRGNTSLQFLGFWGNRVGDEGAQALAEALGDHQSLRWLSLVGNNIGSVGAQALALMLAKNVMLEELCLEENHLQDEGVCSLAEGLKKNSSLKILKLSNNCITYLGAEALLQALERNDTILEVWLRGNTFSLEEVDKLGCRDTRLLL
Excerpt: as §1, §2, §3

[6] = test system: Raw-Blue™ and HEK-Blue™ lines; assay: Assessment by sample of the inflammatory activities from the combined cell tests; type: cell-based; conditions: overall assessment, FIG. 11
Experimental: The objective of these tests is to determine the pro-inflammatory reactivity and the nature of the contaminants present in the glucose polymer matrices and the batch of glucose polymer hydrolysate.
The analyses are carried out on: • Raw-Blue™ line: any contaminants with high reactivity for PGNs, • HEK-Blue™ hTLR2 line: high reactivity for PGNs, • HEK-Blue™ hTLR4 line: high reactivity for LPSs, • HEK-Blue™ hNOD2 line: MDP and PGN depolymerization products, • HEK-Blue™ Null2 line: control for absence of cell toxicity.

[7] = increasing concentrations of agonist, SEAP activity

Molecule: formyl-Met-Leu-Phe tripeptide [f-MLP]
Induction of a cytokine response per se [1]: incapable of inducing a cytokine response per se

HEK-Blue hTLR2 cell response to standard agonists [2, 7]: no reactivity | HEK-Blue hTLR4 cell response to standard agonists [4, 7]: no reactivity | HEK-Blue hNOD2 cell response to standard agonists [5]: strong reactivity
Molecule: CC(=O)N[C@H]1C(O)O[C@H](CO)[C@@H](O)[C@@H]1O[C@H](C)C(=O)N[C@@H](C)C(=O)N[C@H](CCC(=O)O)C(N)=O (mixture of isomers) [MDP, muramyl dipeptide]
Raw-Blue cell response to standard agonists [3, 7]: do not respond

Molecule: O.O=C[C@H](O)[C@@H](O)[C@H](O)[C@H](O)CO [LYCADEX®, dextrose monohydrate]
HEK-TLR2 cell response induced by matrix ([2]; nonfiltered sample, 3.2% (w/v), monohydrate): do not trigger responses; also recorded: only barely or not at all active | Assessment of inflammatory activity by sample [6]: low-strength inflammatory activity | Raw cell response induced by matrix ([3]; nonfiltered sample, 3.2% (w/v)): trigger an inflammatory response | HEK-TLR4 cell response induced by matrix ([4]; nonfiltered sample, 3.2% (w/v)): do not trigger a significant response
